Experimental findings from ChEMBL document CHEMBL1149057, “Mucus synthesis and sulfhydryl groups in cytoprotection mediated by dehydroleucodine, a sesquiterpene lactone” (1994) are described below.

Calls of active or inactive are those of the source. The rule behind the calls is not given here.

In test [1] the test system is Rattus norvegicus. Kind of test: Gastroprotective effect against ethanol-induced gastric damage in fasted Wistar rat assessed as extent of mucosal damage at 40 mg/kg, po pretreated 30 mins before ethanol challenge measured after 60 mins.
The subject of test [2] is Rattus norvegicus. The test can be described thus: Gastroprotective effect against ethanol-induced gastric damage in fasted Wistar rat assessed as extent of mucosal damage at 40 mg/kg, po pretreated 30 mins before ethanol challenge in presence of indomethacin pretreated 60 mins before ethanol challenge. The format is functional, Stomach.
The subject of test [3] is Rattus norvegicus. The test can be described thus: Gastroprotective effect against ethanol-induced gastric damage in fasted Wistar rat assessed as extent of mucosal damage at 40 mg/kg, po pretreated 30 mins before ethanol challenge in presence of N-ethylmaleimide and indomethacin pretreated 60 mins before ethanol challenge.
The species named for test [4] is Rattus norvegicus. Kind of test: Gastroprotective effect in pylorus-ligated Wistar rat assessed as inhibition of acid secretion. The format is functional, organism-based.
In test [5] the test system is Rattus norvegicus. The test can be described thus: Gastroprotective effect against ethanol-induced gastric damage in fasted Wistar rat assessed as extent of mucosal damage at 40 mg/kg, po pretreated 30 mins before ethanol challenge in presence of N-ethylmaleimide pretreated 60 mins before ethanol challenge.
The subject of test [6] is Rattus norvegicus. The test can be described thus: Gastroprotective effect in fasted Wistar rat assessed as increase in rate of gastric mucus glycoprotein synthesis at 40 mg/kg, po after 1 hr by N-acetyl-D-[1-3H]glucosamine incorporation method relative to control. The format is functional, Gastric mucosa.

On to `C=C1C(=O)O[C@@H]2[C@H]3C(C)=CC(=O)C3=C(C)CC[C@@H]12` [DEHYDROLEUCODIN], for which the UI is given as 0.3 in test [1], 1.2 in test [2], 3.3 in test [3] and 2.4 in test [5]. Besides, in test [4], the outcome was inactive. The “fold change (FC)” value in test [6] stood at 7.
